# Data reported in patent publication US20110034504A1, “AGENT FOR PREVENTING AND/OR TREATING VASCULAR DISEASES” (Astellas Pharma Inc., priority 2008, published 2011).
# Where two headings read alike, the source gives them in different places.
# Columns and labels:
# COX-1 = biological target: T1, COX-1 (Cavia porcellus, UniProt H0V9X9); experiment: coagulation-induced Thromboxane B2 (TXB2) production inhibition using guinea pig whole blood after oral administration; type: in vivo; conditions: concomitant use with 1 mg/kg of clopidogrel, read-out: inhibitory rate of coagulation-induced TXB2 production relative to the vehicle group
# T1 construct: from tissue; host or cells: whole blood from the abdominal aorta of male Hartley guinea pigs
# T1 sequence (H0V9X9 25-553): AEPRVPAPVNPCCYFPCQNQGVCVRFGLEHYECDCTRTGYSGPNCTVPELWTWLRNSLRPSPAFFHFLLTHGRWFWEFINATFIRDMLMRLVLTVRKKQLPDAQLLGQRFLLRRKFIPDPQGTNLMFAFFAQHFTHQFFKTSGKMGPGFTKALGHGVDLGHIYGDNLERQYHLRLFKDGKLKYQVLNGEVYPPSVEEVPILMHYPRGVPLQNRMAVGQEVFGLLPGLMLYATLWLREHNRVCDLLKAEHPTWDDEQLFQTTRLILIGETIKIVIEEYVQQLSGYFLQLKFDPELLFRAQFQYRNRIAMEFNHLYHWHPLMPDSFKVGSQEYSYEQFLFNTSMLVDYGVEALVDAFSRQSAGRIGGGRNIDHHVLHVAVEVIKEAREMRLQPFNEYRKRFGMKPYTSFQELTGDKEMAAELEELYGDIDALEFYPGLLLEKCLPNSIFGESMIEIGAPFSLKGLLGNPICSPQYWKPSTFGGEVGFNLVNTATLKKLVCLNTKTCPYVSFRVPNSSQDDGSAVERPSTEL
# Description: Examination on the selectivity of inhibitory effect on Cyclooxygenase (COX)-½ was carried out based on, as indexes, the coagulation-induced Thromboxane B2 (TXB2) production inhibition (COX-1 inhibition) and the LPS-induced Prostaglandin E2 (PGE2) production inhibition using guinea pig whole blood. As the vehicle, 0.5% methyl cellulose solution was used. By dissolving clopidogrel and suspending aspirin and Compound A therein, clopidogrel was orally administered 2 hours before the blood collection, and aspirin and Compound A 1 hour before thereof, to male Hartley guinea pigs which had been subjected to fasting (drug administered groups). On the other hand, as the vehicle administration group, clopidogrel was orally administered 2 hours before the blood collection, and the vehicle 1 hour before thereof. […] TXB2 concentration in the serum was measured using a TXB2 EIA Kit (mfd. by Cayman Chemicals). […] PGE2 concentration in the buffer was measured using a PGE2 EIA Kit (mfd. by Cayman Chemicals). Inhibitory rate of each of the TXB2 concentration and PGE2 concentration relative to the vehicle group was calculated using a calculation formula [100-(drug administration group concentration/solvent administration concentration)×100 (%)], and significant difference from the vehicle group was tested using Student's t-test.
# [1] = system: iron chloride-induced thrombus (abdominal aorta); experiment: ferric chloride-induced thrombosis model in guinea pigs; type: in vivo, guinea pig; conditions: for total protein content of thrombi, concomitant administration compared with single administration groups: oral; for total protein content of thrombi, comparison with control (vehicle administration group): single drug, Student's t-test
# Description: Verification of anti-thrombotic action was carried out using a ferric chloride-induced thrombosis model in guinea pigs, by partially modifying the experiment described in “Thrombosis Research” (1990, vol. 60, p. 269-280). Using 0.5% methyl cellulose solution as the vehicle, clopidogrel solution, aspirin suspension and Compound A suspension were prepared. […] Thrombus was induced by the following procedure. Each guinea pig was laparotomized while under pentobarbital anesthesia, and abdominal aorta was carefully detached from the surrounding tissues. […] The filter paper was removed 10 minutes thereafter, followed by 45 minutes of standing under subdued light. Both ends of the injured part of the detached blood vessel were closed with clips, and inside thereof was cut out using scissors to collect the blood vessel. By cutting open the thus collected blood vessel vertically, the thrombi formed in the blood vessel were taken out using a pair of tweezers and dissolved in 0.5 mol/1 of NaOH. Protein concentration was determined using DC protein assay kit (mfd. by BIO-RAD Laboratories) and in accordance with the protocols. Using total protein content of the formed thrombi as the index of anti-thrombotic effect, Statistical analysis between respective groups was performed by using Student's t-test.
# gastric mucosa = experiment: influence of drugs upon gastric mucosa in normal guinea pigs; type: in vivo, guinea pig; conditions: for gastric mucosal lesion (length): 3 hours after administration
# Description: Examination of the influence of drugs exerting upon gastric mucosa was carried out using normal guinea pigs. Using 0.5% methyl cellulose solution as the vehicle, clopidogrel solution, aspirin suspension and Compound A suspension were prepared. […] Also, in the evaluation at the time of concomitant administration of clopidogrel with aspirin or Compound A, in addition to 3 mg/kg of clopidogrel, 300 mg/kg of aspirin was simultaneously administered in the aspirin concomitant use group, and 100 mg/kg of Compound A in the Compound A concomitant use group. After 3 hours of the administration, each guinea pig was sacrificed by deep anesthesia with carbon dioxide, and the stomach was quickly removed. The gullet part of the extracted stomach was ligated, 15 ml of 4% neutral buffered formalin solution was injected from the pylorus part, and then light fixation was carried out by immersing in the same solution for about 1 hour after ligating the pylorus part. Thereafter, the stomach was cut open along the greater curvature of stomach, and the length (mm) of gastric mucosal lesion was measured using a stereoscopic microscope. Statistical analysis between respective groups was performed by using Wilcoxon rank sum test.
# COX-2 = biological target: T2, COX-2 (Cavia porcellus, UniProt P70682); experiment: LPS-induced Prostaglandin E2 (PGE2) production inhibition using guinea pig whole blood after oral administration; type: in vivo; conditions: read-out: inhibitory rate of LPS-induced PGE2 production relative to the vehicle group
# T2 construct: The sodium citrate-added whole blood was mixed with LPS to a final concentration of 100 μg/ml, incubated at 37° C. for 24 hours; from tissue; host or cells: citrated whole blood of male Hartley guinea pigs, stimulated with LPS
# T2 sequence (P70682 18-604): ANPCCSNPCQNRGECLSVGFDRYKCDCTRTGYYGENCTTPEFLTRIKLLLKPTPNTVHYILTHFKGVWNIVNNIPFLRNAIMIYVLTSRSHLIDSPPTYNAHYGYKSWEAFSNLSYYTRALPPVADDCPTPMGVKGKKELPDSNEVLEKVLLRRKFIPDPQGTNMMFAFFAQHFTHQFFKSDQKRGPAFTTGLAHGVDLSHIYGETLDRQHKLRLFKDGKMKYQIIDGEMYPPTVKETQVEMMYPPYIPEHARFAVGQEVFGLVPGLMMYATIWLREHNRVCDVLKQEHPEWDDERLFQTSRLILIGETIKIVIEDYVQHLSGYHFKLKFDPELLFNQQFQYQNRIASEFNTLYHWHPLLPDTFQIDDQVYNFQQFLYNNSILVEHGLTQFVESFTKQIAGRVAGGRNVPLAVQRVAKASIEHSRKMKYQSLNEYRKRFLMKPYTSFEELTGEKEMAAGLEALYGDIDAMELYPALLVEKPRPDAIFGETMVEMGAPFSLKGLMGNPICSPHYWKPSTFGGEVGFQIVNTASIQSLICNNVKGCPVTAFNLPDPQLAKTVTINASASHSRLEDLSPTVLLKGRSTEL
# Description: Examination on the selectivity of inhibitory effect on Cyclooxygenase (COX)-½ was carried out based on, as indexes, the coagulation-induced Thromboxane B2 (TXB2) production inhibition (COX-1 inhibition) and the LPS-induced Prostaglandin E2 (PGE2) production inhibition using guinea pig whole blood. As the vehicle, 0.5% methyl cellulose solution was used. […] On the other hand, as the vehicle administration group, clopidogrel was orally administered 2 hours before the blood collection, and the vehicle 1 hour before thereof. Each guinea pig was laparotomized while under ether anesthesia, 4 ml of blood was collected from the abdominal aorta, and 1 ml thereof was put into an anticoagulant-un-added tube and allowed to stand still and then 3 ml thereof was put into a tube charged with 300 μl of sodium citrate, followed by tipping mixing. […] PGE2 concentration in the buffer was measured using a PGE2 EIA Kit (mfd. by Cayman Chemicals). Inhibitory rate of each of the TXB2 concentration and PGE2 concentration relative to the vehicle group was calculated using a calculation formula [100-(drug administration group concentration/solvent administration concentration)×100 (%)], and significant difference from the vehicle group was tested using Student's t-test.
# [2] = cited from earlier work
# [3] = thromboembolism patients, CAPRIE trial; cited from earlier work
# [4] = combination use of aspirin and clopidogrel, cited from earlier work
# [5] = clopidogrel combined with aspirin, cited from earlier work
structure (smiles),measurement,setting,value
"COc1ccc(-c2nc(OC)nn2-c2ccc(OC)cc2)cc1 [Compound A, 3-methoxy-1,5-bis(4-methoxyphenyl)-1H-1,2,4-triazole]",inhibition at 3 mg/kg,COX-1; 3 mg/kg Compound A orally,82.1%
same,"total protein content of thrombi, compared with concomitant administration group of clopidogrel and aspirin",[1]; 3 mg/kg Compound A + 1 mg/kg clopidogrel vs 300 mg/kg aspirin + 1 mg/kg clopidogrel,statistically significant difference from a concomitant administration group of clopidogrel and aspirin
same,"total protein content of thrombi, concomitant administration compared with single administration groups",[1]; 3 mg/kg Compound A concomitantly with 1 mg/kg clopidogrel,statistically significant difference from the clopidogrel single administration group (CLO 1) and Compound A single administration group (Comp A 3)
same,"total protein content of thrombi, comparison with control (vehicle administration group)",[1]; Compound A 3 mg/kg orally 1 hour before thrombus induction,statistically significant difference
same,gastric mucosal lesion (length),"gastric mucosa; 100 mg/kg oral, single drug",a clear action for gastric mucosa cannot be confirmed
same,gastric mucosal lesion (length),"gastric mucosa; Compound A 100 mg/kg concomitantly with clopidogrel 3 mg/kg, oral",a clear action for gastric mucosa cannot be confirmed
same,inhibition at 3 mg/kg,"COX-2; 3 mg/kg Compound A orally, concomitant use with 1 mg/kg of clopidogrel",10.1%
CC(=O)Oc1ccccc1C(=O)O [aspirin],inhibition at 300 mg/kg,COX-1; 300 mg/kg aspirin orally,100%
same,"total protein content of thrombi, concomitant administration compared with single administration groups",[1]; 300 mg/kg aspirin concomitantly with 1 mg/kg clopidogrel,"significant difference from the clopidogrel single administration group (CLO 1), but a significant difference was not found in comparison with the aspirin single administration group (ASA 300)"
same,"total protein content of thrombi, comparison with control (vehicle administration group)",[1]; aspirin 300 mg/kg orally 1 hour before thrombus induction,statistically significant difference
same,gastric mucosal lesion (length),"gastric mucosa; 300 mg/kg oral, single drug",Gastric mucosal damage was clearly formed
same,gastric mucosal damage at concomitant administration with clopidogrel compared with aspirin alone,gastric mucosa; aspirin 300 mg/kg + clopidogrel 3 mg/kg vs aspirin 300 mg/kg alone,becomes worse
same,gastric mucosal lesion (length),"gastric mucosa; aspirin 300 mg/kg concomitantly with clopidogrel 3 mg/kg, oral",Gastric mucosal damage was also clearly induced
same,inhibition at 300 mg/kg,COX-2,90.4%
same,event inhibition ratio,"[2]; 75 mg or less, meta-analysis",13%
same,event inhibition ratio,"[2]; administration of from 75 to 150 mg, meta-analysis",32%
same,event inhibition ratio,"[2]; administration of from 160 to 325 mg, meta-analysis",26%
same,event inhibition ratio,"[2]; administration of from 500 to 1500 mg, meta-analysis",19%
same,event inhibition ratio,"[2]; high risk patients, low dose aspirin",about 25%
same,event onset ratio,[3],5.32 %/year
"COC(=O)[C@H](c1ccccc1Cl)N1CCc2sccc2C1 [clopidogrel, methyl (+)-(S)-2-(2-chlorophenyl)-2-(4,5,6,7-tetrahydrothieno[3,2-c]pyridin-5-yl)acetate]",primary prevention effect,[4]; low risk patients,usefulness of the combination group was not found
same,secondary thrombotic event inhibition effect,[4]; patients of ischemic diseases,significant secondary thrombotic event inhibition effect
same,reduction of event ratio in combination use group in comparison with the aspirin alone group,[5]; non-ST increase ACS patients,20%
same,hemorrhagic side effects in the combination use group,[5],significantly increased
same,"total protein content of thrombi, comparison with control (vehicle administration group)",[1]; clopidogrel 1 mg/kg orally 2 hours before thrombus induction,statistically significant difference
same,gastric mucosal lesion (length),"gastric mucosa; 100 mg/kg oral, single drug",a clear action for gastric mucosa cannot be confirmed
same,event onset ratio,[3],5.83 %/year
same,lowering of the event onset ratio based on aspirin,[3],8.7%
